The target of one test is X-box-binding protein 1 (Homo sapiens, UniProt P17861). The format is functional, Cricetulus griseus.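 Also: confirmatory dose-response counter-screen serving a CHOP assay.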
Test [1] deals with BJ. The test can be described thus: cells. The test is classed as functional, cell-based, Homo sapiens. Conditions: bj.
In test [2] the test system is BJ. The test is described as follows: cytotoxicity toward BJ-TERT-LT-ST fibroblasts, dose response, cell-based, RAS-independent, luminescence (AID 1935).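 Also: BJ fibroblasts immortalized with TERT plus LT and ST oncogenes.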 To be noted: bj. The format is functional, Homo sapiens.
Test [3] deals with BJ. The test is described as follows: cytotoxicity toward BJ-TERT fibroblasts, dose response, cell-based, RAS-independent, luminescence (AID 1933). The test is classed as functional, Homo sapiens. To be noted: bj.
Another test in a line: cells. The format is functional.
Test [4] in a line: Vero E6 cell cytotoxicity, dose response, cytotoxicity control for non-replicating M. tuberculosis project, secondary assay (AID 492998). The test is classed as functional, VeroE6. To be noted: Vero C1008.
A further test relates to HEK293. The test is described as follows: inhibitors of LMP1-driven NF-kB reporter, dose response, cell-based, HEK293, luciferase, cherry-pick (AID 588343). To be noted: Homo sapiens. The format is functional.
Test [5] in a line: THP-1 cell cytotoxicity, dose response, cytotoxicity control for non-replicating M. tuberculosis project (AID 489025). The test is classed as functional.
A short description of test [6]: HepG2 cell cytotoxicity, dose response, cytotoxicity control for non-replicating M. tuberculosis project (AID 489018). The format is functional. Conditions: Mycobacterium tuberculosis.
For the next test, the system named is H9c2. The test can be described thus: cells. Conditions: Rattus norvegicus, H9c2, Myocardium. The test is classed as functional, cell-based.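 Also: confirmatory concentration-response retest of ultra-high-throughput screening hits for modulation of myocardial damage; cell death induced by hydrogen peroxide oxidative stress; compound pretreatment for 60 min then peroxide exposure for 2 h; potency is for protecting the cells against peroxide damage rather than for killing them.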
The target in a further test is T1, Hexokinase HKDC1 (Homo sapiens, UniProt Q2TB90).
T1 sequence (Q2TB90 whole entry): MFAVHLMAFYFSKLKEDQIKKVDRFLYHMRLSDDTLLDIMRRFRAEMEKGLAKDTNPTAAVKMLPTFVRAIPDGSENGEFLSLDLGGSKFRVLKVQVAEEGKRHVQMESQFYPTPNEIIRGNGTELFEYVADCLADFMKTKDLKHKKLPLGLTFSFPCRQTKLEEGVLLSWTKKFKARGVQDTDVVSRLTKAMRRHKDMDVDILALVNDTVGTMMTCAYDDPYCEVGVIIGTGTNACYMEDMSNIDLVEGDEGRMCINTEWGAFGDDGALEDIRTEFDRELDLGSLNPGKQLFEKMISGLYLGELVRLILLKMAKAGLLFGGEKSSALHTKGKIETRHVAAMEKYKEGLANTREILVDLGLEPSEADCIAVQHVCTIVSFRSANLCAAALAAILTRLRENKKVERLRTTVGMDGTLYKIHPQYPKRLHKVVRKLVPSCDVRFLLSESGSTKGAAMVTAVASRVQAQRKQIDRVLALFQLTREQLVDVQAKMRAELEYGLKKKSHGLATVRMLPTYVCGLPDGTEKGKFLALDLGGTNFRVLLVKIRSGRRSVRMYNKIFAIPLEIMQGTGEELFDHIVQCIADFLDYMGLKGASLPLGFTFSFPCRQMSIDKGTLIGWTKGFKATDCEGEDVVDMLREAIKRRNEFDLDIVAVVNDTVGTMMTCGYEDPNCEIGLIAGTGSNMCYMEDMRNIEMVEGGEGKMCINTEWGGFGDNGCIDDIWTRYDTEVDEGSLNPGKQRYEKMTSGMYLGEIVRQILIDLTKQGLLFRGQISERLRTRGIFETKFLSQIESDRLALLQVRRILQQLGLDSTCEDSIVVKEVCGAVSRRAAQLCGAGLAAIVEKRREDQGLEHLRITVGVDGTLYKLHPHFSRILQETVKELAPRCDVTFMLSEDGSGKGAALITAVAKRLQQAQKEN
The test is described as follows: HKDC1 hexokinase activators, dose response, biochemical, W721R variant (AID 504730). The format is functional.

The next test has as its target Hexokinase-1 (Homo sapiens, UniProt P19367). The test is described as follows: hexokinase 1 activators, dose response, selectivity assay for HKDC1 activator project, biochemical (AID 504762). The test is classed as functional.
For test [7], the target named is T2, E3 ubiquitin-protein ligase XIAP (Homo sapiens, UniProt P98170). The test is described as follows: XIAP antagonists, biochemical, IAP family, fluorescence polarization (AID 1018). The test is classed as functional.
The target of test [8] is T2, E3 ubiquitin-protein ligase XIAP. The test is described as follows: Counter Screen using XIAP-Bir3 for Chemical Antagonists of Bir1/2 domains of IAP-family anti-apoptotic proteins. [Related pubchem assays (depositor defined):AID1018, AID1449, AID1514, AID1638, AID1749, AID1750, AID488957, AID488963]. A general note: Counterscreens check selectivity or assay interference.

The target in test [9] is Induced myeloid leukemia cell differentiation protein Mcl-1 (Homo sapiens, UniProt Q07820). The test is classed as functional.
Test [10] is described as follows: growth suppression of beta-catenin-knockout colon cells, dose response, cell-based, HCT116, human colon tumor (AID 1045).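 Also: HCT116 colon tumor cells with beta catenin knocked out; cells exposed to compound for 60 hours.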 The format is functional.
Test [11] is described as follows: growth suppression of PTEN-null colon cells, dose response, cell-based, HCT116 PTEN knockout (AID 1047).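 Also: HCT116 colon tumor cells with PTEN knocked out; cells exposed to compound for 60 hours before readout; potency for loss of cell viability measured by luminescence.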 The format is functional.
A further test has as its target Troponin, cardiac muscle (Homo sapiens, UniProt P19429+P45379+P63316). The test is described as follows: Fluorescence-based biochemical high throughput dose response assay for activators of the calcium sensitivity of cardiac Regulated Thin Filaments (RTF). [Related pubchem assays (depositor defined):AID493008, AID493018, AID504382, AID504383]. The format is protein-complex assay.

The source made the active and inactive calls. Some results are limits rather than exact numbers.

What is called EC50 is the concentration that produces a half-maximal response. In general, IC50 refers to the concentration needed to halve the response being measured. Usually CC50 stands for the concentration giving 50% cytotoxicity. As usually defined, the AC50 is the midpoint of the concentration-response curve, whichever way the signal moves.

T2 sequence (P98170 whole entry): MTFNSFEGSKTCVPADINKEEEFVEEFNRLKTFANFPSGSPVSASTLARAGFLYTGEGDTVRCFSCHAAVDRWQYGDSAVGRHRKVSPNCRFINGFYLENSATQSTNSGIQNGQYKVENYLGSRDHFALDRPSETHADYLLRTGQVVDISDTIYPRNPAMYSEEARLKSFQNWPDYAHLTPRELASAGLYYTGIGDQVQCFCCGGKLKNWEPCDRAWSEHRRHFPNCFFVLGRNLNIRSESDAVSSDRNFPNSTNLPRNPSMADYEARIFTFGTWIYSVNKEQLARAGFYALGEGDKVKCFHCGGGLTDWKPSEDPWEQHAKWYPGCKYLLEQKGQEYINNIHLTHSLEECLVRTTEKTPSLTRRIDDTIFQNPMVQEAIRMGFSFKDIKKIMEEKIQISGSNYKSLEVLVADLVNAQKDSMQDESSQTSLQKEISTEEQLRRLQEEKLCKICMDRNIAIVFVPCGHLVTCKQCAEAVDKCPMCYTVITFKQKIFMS
Chain of Hexokinase-1 (P19367 whole entry): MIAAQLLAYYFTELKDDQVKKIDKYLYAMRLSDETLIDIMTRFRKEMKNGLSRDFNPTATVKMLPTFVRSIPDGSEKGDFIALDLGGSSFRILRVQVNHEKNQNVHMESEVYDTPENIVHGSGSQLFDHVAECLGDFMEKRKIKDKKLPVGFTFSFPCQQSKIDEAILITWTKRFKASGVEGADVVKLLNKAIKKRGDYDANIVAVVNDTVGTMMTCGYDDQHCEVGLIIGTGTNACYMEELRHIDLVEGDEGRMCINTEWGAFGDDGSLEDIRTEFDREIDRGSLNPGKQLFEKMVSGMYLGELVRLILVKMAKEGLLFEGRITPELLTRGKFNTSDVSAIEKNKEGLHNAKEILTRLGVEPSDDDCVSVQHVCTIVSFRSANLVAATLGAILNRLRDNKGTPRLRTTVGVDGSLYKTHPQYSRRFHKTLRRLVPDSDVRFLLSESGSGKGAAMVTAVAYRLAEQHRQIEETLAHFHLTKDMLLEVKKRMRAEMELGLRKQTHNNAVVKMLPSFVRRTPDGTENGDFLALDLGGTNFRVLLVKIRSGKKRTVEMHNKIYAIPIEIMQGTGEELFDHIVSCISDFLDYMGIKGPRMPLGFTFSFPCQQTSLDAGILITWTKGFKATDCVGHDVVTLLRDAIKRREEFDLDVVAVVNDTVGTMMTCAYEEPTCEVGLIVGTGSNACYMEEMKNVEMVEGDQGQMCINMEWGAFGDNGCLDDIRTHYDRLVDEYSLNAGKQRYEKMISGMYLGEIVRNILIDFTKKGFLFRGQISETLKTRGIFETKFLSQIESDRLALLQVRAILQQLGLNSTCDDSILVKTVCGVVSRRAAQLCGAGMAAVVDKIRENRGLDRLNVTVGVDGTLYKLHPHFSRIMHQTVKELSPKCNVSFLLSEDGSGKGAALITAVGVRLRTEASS
Chain of X-box-binding protein 1 (P17861 whole entry): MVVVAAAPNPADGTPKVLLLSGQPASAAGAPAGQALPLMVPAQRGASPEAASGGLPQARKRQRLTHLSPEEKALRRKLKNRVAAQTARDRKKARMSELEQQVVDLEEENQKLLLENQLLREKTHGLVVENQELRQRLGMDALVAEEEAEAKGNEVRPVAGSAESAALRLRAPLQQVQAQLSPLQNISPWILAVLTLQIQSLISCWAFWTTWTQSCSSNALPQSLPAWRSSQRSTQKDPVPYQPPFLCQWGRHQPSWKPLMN
Chain of Induced myeloid leukemia cell differentiation protein Mcl-1 (Q07820 whole entry): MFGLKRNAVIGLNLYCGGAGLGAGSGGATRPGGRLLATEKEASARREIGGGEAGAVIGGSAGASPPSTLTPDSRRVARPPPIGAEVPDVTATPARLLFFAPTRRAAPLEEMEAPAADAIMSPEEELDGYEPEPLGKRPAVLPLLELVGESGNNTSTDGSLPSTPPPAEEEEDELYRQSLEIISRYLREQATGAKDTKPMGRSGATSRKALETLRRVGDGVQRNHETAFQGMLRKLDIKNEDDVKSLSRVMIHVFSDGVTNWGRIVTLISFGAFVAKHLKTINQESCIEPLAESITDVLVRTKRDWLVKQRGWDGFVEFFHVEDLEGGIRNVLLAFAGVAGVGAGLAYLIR

Take `C=C(C=O)CC1CC(O)[C@]2(C)OC3CC4OC5C[C@]6(C)O[C@]7(C)CCC8OC9C[C@]%10(C)OC%11C(C)=CC(=O)OC%11CC%10OC9C[C@@H](C)C8OC7CC6O[C@]5(C)CC5OC5C4OC3CC2O1` (stereo not given in full): the “Absolute IC50 (XBP1)” value at X-box-binding protein 1 worked out at 4.71 µM. Besides, the 50% effective concentration (EC50) in the test on BJ [1] is 2.93 µM (inconclusive); with BJ [2] it was 0.735 µM (inconclusive); in the test with BJ [3], 1.17 µM (inconclusive).

`COc1cccc(-c2nnc(NC(=O)c3ccc(S(=O)(=O)N(CC(C)C)CC(C)C)cc3)o2)c1`: the IC50 is 16.3 µM (active) in the test “cells” and > 79 µM (inactive) in the test on H9c2. Further, the results for the CC50 in test [4], in test [5] and in test [6] were 2.37 µM (active), 0.996 µM (active) and 5.3 µM (active), respectively. Also, in the test with HEK293, the half-maximal activity concentration (AC50) is 8.51 µM (active).

`Cc1cc(C2=NN=C(Nc3ccc(S(=O)(=O)N4CCOCC4)cc3)SC2)c(C)n1CC1CCCO1` (stereo not given): the EC50 on Hexokinase HKDC1 is 31.2 µM (inactive); at Hexokinase-1, 29.5 µM (inactive).

Turning to `O=C(O)CCCNC(=O)c1cncc(Br)c1`, the IC50 was > 100 µM (not active) in test [7] and > 100 µM (inactive) in test [8].

Take `O=C(/C=C/c1ccco1)Nc1ccc2nn(-c3ccccc3)nc2c1`: the half-maximal inhibitory concentration (IC50) in [7] was > 100 µM (not active); in [8] it was > 100 µM (inactive); in [9] it was 5.43 µM (active). Moreover, the EC50 in test [10] is 4.53 µM (active); in [11] it was 4.11 µM (active).

With `COc1ccc(C)cc1NC(=O)C12CCC(C)(C(=O)O1)C2(C)C` (stereo not given), at Troponin, cardiac muscle, the EC50 is > 71.5 µM (inactive).

(Values after ChEMBL document CHEMBL1201862, “PubChem BioAssay data set” (2004).)
